Measured values from patent US20070224273A1, “Multifunctional Supramolecular Hydrogels as Biomaterials” (priority 2004, published 2007).
Peptide text beside a SMILES is read from it. * marks the point of attachment. Butanoyl(4-pyren-1-yl) = O=C(CCCc1ccc2ccc3cccc4ccc1c2c34)*; Acetyl(1-naphthyl) = O=C(Cc1cccc2ccccc12)*

Assays:
acid phosphatase = experiment: Visual hydrogelation assay for enzyme inhibitors (conversion of 9 to 10); format: biochemical; conditions: pH=6.0, 37° C., solution-to-gel transition after 30 minutes
Excerpt: FIG. 6 illustrates the design of the visual assay. The precursor, which acts as the substrate of an enzyme, transforms into a hydrogelator when the enzyme catalyzes its conversion. Then, the self-assembly of the hydrogelators in water induces the formation of hydrogel. When inhibitors competitively bind with the active site of the enzyme and block the conversion of the precursor catalyzed by the enzyme, no hydrogel forms. Therefore, the macroscopic solution-to-gel transition (which can be observed visually) of the solution of the precursor reports the inactivation of the enzyme by the inhibitors.
This approach has a unique feature—it enlists water molecules as part of the reporting system. In addition, no spectrometer is required for observing the solution-to-gel phase transition. This simple and inexpensive method may be useful, not only for screening the inhibitors but also, for detecting the presence of enzymes when appropriate precursors are used. To verify the feasibility of the design shown in FIG. 6, a simple amino acid derivative (9), which can be converted into a hydrogelator (10) by dephosphorylation, was used to screen the inhibitors for an acid phosphatase.
Since the acid phosphatase catalyzes the conversion of 9 to 10 and leads to hydrogelation at a pH=6.0 and 37° C., the event of hydrogelation can indicate the activity of inhibitors for the acid phosphatase itself. Pamidronate disodium, Zn^2+, and sodium orthovanadate (Na3VO4) were chosen to estimate their minimum inhibition concentrations for the acid phosphatase. The three compounds were first mixed with the enzyme at a series of concentrations, respectively, followed by the addition of 9 to the solutions 10 minutes after mixing. After an additional 30 minutes of incubation, the solution-to-gel phase transition indicates the minimum inhibition concentration of the compounds. From the changes of rows 2, 3, and 4 in FIG. 7, the minimum inhibition concentrations of Pamidronate disodium, Zn^2+, and sodium orthovanadate (Na3VO4) for the acid phosphatase were determined to be 33 mM, 0.33 mM, and 3.3 mM, respectively.

[1] = Solubility in water of pentapeptide derivatives; format: physicochemical
Excerpt: Most of the compounds can gel water under appropriate pH. When the pH becomes higher than the listed value, the gel tends to become a clear solution, while a lower pH always leads to precipitation rather than homogeneous gel formation. GAGAS (SEQ ID No. 1), the epitope with the least bulk side chains, appears to be quite hydrophilic in water.
However, it is still not a good candidate as a hydrophilic tail in a hydrogelator. […] Hydrogel by Fmoc-GVGVP can be obtained by carefully adjusting the pH to 4.8, with the hydrogel not being thermal-reversible. […] Upon heating, it also melts. All three compounds, with VPGVG as the hydrophilic part, fail to gel water at the tested condition. They all show sharp solubility changes with pH and low melting points.

[2] = Hydrogelation in water (ability, concentration, pH); format: physicochemical
Experimental: Typically, after 2 mg of 1 was suspended in 1.0 mL of water, the increase of temperature to 80° C. gave a clear solution. Cooling the solution to room temperature led to a slightly opaque hydrogel (Gel I, FIG. 20A). Similar procedure afforded the hydrogel of 2 (Gel II, FIG. 20B).

[3] = test system: C600 (β-lactamase negative E. coli control); experiment: Cell lysate added to solution of precursor 3, sample A; format: biochemical; conditions: precursor 3 to form 1 after 6 hours
Experimental: (§1) To evaluate whether precursor 3 would respond to β-lactamases in bacteria, solution of precursor 3 was treated with sonicated lysates of E. coli.

[4] = test system: CTX-M13 (extended-spectrum β-lactamase); experiment: Cell lysate added to solution of precursor 3, sample B; format: biochemical, E. coli
Experimental: as §1

[5] = target: T1, CTX-M14 (extended-spectrum β-lactamase) (Escherichia coli, UniProt Q9L5C7); experiment: Cell lysate added to solution of precursor 3, sample C; format: biochemical, E. coli
T1 construct: endogenous in cells; host or cells: E. coli (sonicated lysate)
Experimental: as §1

[6] = test system: JP995 (β-lactamase negative E. coli control); experiment: Cell lysate added to solution of precursor 3, sample D; format: biochemical; conditions: precursor 3 to form 1 after 6 hours
Experimental: as §1

[7] = target: T2, SHV-1 (broad-spectrum β-lactamase) (Escherichia coli, UniProt P0AD63); experiment: Cell lysate added to solution of precursor 3, sample E; format: biochemical, E. coli; conditions: lysate SHV-1
T2 construct: endogenous in cells; host or cells: E. coli (sonicated lysate)
Experimental: as §1

[8] = target: T3, TEM-1 (broad-spectrum β-lactamase) (Escherichia coli, UniProt P62593); format: biochemical, E. coli; conditions: lysate TEM-1
T3 construct: endogenous in cells; host or cells: E. coli (sonicated lysate)
Experimental: as §1

[9] = Solution of precursor 3, sample G (only water, no enzyme); format: biochemical; conditions: precursor 3 to form 1 after 6 hours
Experimental: as §1

[10] = Artificial enzyme (hemin) activity assay, oxidation of pyrogallol by H2O2; format: biochemical
Experimental: Activity assay: Using the oxidation of pyrogallol (10.0 mM) by H2O2 (40.0 mM) as a model reaction and fixing the total concentration of Hemin to 5 μM in the mixture, we examined the activity of Hemin by monitoring the absorbance (420 nm) of purpurogallin, the product of Hemin-catalyzed oxidation of pyrogallol. The catalytic reaction course of the artificial enzyme was measured by monitoring the increase in absorbance along with time change. The absorbance increase in the first minute was defined to be the initial rate. The Lineweaver-Burk plots constructed by the reaction initial rates at different pyrogallol concentrations were used to estimate their kinetic constant values. The other substrates, including o-phenyldiamine (product absorption at 450 nm) and o-aminophenol (product absorption at 430 nm), were employed under the same procedure of pyrogallol.
Using the oxidation of pyrogallol as a model reaction and fixing the total concentration of Hemin to be 5 μM in the mixture, we obtained the catalytic rate of Hemin by monitoring the changes of the absorbance of purpurogallin, the product of Hemin-catalyzed oxidation of pyrogallol. […] The Lineweaver-Burk plots constructed by the reaction initial rates at different pyrogallol concentrations gave the activity of the artificial enzyme. The kinetics of the catalysis of artificial enzyme follows Michaelis-Menten equation, which indicated successful design and generation of an artificial peroxidase by encapsulating hemin into hydrogel. […] Two factors likely contribute to the high activity of Hemin(Phe) in pH 7,4 buffer: (i) localization of hemin on the nanofibers preserves the catalytic species—monomeric hemin; (ii) the mesoporous structure in hydrogel facilitates the substrate across the hydrogel network to access the hemin in the hydrogel.

[11] = precursor 3 to form 1 after 6 hours

T1 sequence (Q9L5C7 entry or part of it): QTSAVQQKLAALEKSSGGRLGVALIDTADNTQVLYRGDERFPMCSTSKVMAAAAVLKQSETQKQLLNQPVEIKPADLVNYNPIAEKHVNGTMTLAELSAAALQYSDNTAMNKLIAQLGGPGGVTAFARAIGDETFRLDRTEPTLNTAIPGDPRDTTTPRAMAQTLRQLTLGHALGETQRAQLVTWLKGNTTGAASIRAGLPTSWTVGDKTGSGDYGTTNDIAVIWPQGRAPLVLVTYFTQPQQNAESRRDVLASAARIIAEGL
T3 sequence (P62593 24-286 limits assumed): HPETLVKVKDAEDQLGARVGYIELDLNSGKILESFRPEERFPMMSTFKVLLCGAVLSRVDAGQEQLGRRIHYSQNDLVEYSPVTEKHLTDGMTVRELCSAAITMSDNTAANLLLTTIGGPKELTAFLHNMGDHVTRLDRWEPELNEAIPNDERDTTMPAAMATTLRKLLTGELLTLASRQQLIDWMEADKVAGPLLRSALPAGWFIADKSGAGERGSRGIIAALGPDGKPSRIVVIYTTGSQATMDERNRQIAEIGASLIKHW
T2 sequence (P0AD63 22-286): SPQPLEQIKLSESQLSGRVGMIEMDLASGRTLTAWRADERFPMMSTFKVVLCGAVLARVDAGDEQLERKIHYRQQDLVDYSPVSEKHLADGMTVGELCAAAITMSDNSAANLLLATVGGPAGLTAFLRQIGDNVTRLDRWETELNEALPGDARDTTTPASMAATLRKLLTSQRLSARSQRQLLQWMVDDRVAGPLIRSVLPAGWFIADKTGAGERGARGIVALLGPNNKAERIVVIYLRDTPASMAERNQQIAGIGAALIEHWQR

[Na+].[Na+].[Na+].[O]=[V]([O-])([O-])[O-] [sodium orthovanadate]
minimum inhibition concentration (acid phosphatase): 3.3 mM

CC(C)[C@H](NC(=O)CNC(=O)Cc1cccc2ccccc12)C(=O)NCC(=O)N[C@H](C(=O)N1CCC[C@H]1C(=O)O)C(C)C [Naph-GVGVP] ({Acetyl(1-naphthyl)}-GVGVP-OH)
solubility in water [1]: either dissolves in water at a pH higher than 4 or becomes a suspension at a lower pH

O=C(Cc1ccc2ccccc2c1)NC1C(O)OC(CO)C(O)C1O [Nap-D-Glucosamine]
ability to gel water / form hydrogel [2]: fail to form supramolecular hydrogels

NCC(=O)N[C@@H]1C(=O)N2C(C(=O)O)=C(CSCCNC(=O)[C@H](Cc3ccccc3)NC(=O)[C@H](Cc3ccccc3)NC(=O)Cc3ccc4ccccc4c3)CS[C@H]12 [Precursor 3]
Conversion (%) [3]: <0.5% | Conversion (%) ([3]; listed as precursor 3): < 0.5% | Gelation ([4]; precursor 3 0.35 wt %): + (Gels form in less than 2 hours) | Conversion (%) [4, 11]: 99.7% | Gelation ([5]; precursor 3 0.35 wt %): + (Gels form in less than 2 hours) | Conversion (%) [5, 11]: 99.5% | Conversion (%) [6]: 5.8% | Gelation ([7]; precursor 3 0.35 wt %): + (Gels form in less than 2 hours) | Conversion (%) [7, 11]: 65.2% | Gelation ([8]; precursor 3 0.35 wt %): + (Gels form in less than 2 hours) | Conversion (%) [8, 11]: 84.3% | Conversion (%) [9]: <0.5% | Conversion (%) ([9]; listed as precursor 3): < 0.5% | start of hydrogelation (dynamic time sweep) (β-lactamase; after addition of the β-lactamases): about 22 minutes | precursor 3 transformed into 1 (HPLC) (β-lactamase; one hour after addition of β-lactamase, room temperature): 49.0% | conversion of 3 to 1 (HPLC) (β-lactamase; β-lactamase and its inhibitor (clavulanic acid), after 12 hours): 3.4%

C[C@H](NC(=O)CNC(=O)Cc1cccc2ccccc12)C(=O)NCC(=O)N[C@@H](C)C(=O)N[C@@H](CO)C(=O)O [Naph-GAGAS] ({Acetyl(1-naphthyl)}-GAGAS-OH)
solubility in water [1]: soluble in water even under low pH and high concentration

O=C(Cc1ccc2ccccc2c1)NC(Cc1ccccc1)C(=O)NC(Cc1ccccc1)C(=O)NC1C(O)OC(CO)C(O)C1O [Nap-L-Phe-L-Phe-D-Glucosamine]
ability to gel water / form hydrogel [2]: fail to form supramolecular hydrogels

C=CC1=C(C)c2cc3[n-]c(cc4nc(cc5[n-]c(cc1n2)c(C)c5CCC(=O)O)C(CCC(=O)O)=C4C)c(C)c3C=C.[Cl-].[Fe+3] [Hemin(Free), hemin chloride]
retention of catalytic ability during reaction ([10]; 15 minutes course, water buffer and toluene): lost most catalytic ability after 5 min | kcat in buffer ([10]; buffer (0.01 M, pH 7.4, phosphate)): 2.4 min⁻¹ | kcat in toluene ([10]; toluene): 2.7 min⁻¹

CC(C)[C@H](NC(=O)CCCc1ccc2ccc3cccc4ccc1c2c34)C(=O)N[C@@H](Cc1ccc(O)cc1)C(=O)NCC(=O)NCC(=O)NCC(=O)O [Pyrene-VYGGG] ({Butanoyl(4-pyren-1-yl)}-VYGGG-OH)
solubility in water [1]: insoluble in water even under basic conditions

O=C(O)[C@H]1/C(=C/CO)O[C@@H]2CC(=O)N21 [clavulanic acid, reference compound]
hydrogel formation with β-lactamase and inhibitor (β-lactamase; precursor 3 added to β-lactamase and inhibitor): failed to yield a hydrogel

NCCC(O)(P(=O)(O)O)P(=O)(O)O [Pamidronate disodium]
minimum inhibition concentration (acid phosphatase): 33 mM

[Zn+2] [Zn^2+]
minimum inhibition concentration (acid phosphatase): 0.33 mM
